Values of other authors as cited in patent US20070135390A1, “Phosphate derivatives” (priority 2003, published 2007).

Conditions: printed as in vitro use

In the case of “Phenol, 2,6-bis(1-methylethyl)-, dihydrogen phosphate (9CI) [propofol phosphate]”, the induction of anesthesia is given as “does not however induce anesthesia”.
